Data: patent US9957257B2, “Amide compounds as 5-HT4 receptor agonists” (SUVEN LIFE SCIENCES LIMITED, priority 2015, dated 2018)

Legend:
[1] = Rodent brain penetration study; format: in vivo, Male Wistar rats; conditions: male, Wistar, rat, 3 mg/kg, oral (gavage), read-out: Single dose Brain Penetration (Cb/Cp)
Method: Male Wistar rats (225±25 grams) were used as experimental animals. Three animals were housed in each cage. Animals were given water and food ad libitum throughout the experiment and maintained on a 12 hours light/dark cycle. Brain penetration was determined in discrete manner in rats. One day prior to dosing day, male wistar rats (225-250 grams) were acclimatized. After acclimatization the rats were grouped according to their weight. In each group, 3 animals were kept in individual cage and allowed free access to food and water. At each time point (0.50, 1 and 2 hours) n=3 animals were used. The test compounds were suitably preformulated and administered orally at (free base equivalent) 3 mg/kg. Blood samples were removed via, cardiac puncture by using isoflurane anesthesia. The animals were sacrificed to collect brain tissue. Plasma was separated and brain samples were homogenized and stored frozen at −20° C. until analysis. The concentrations of the test compounds in plasma and brain were determined using LC-MS/MS method. The test compounds were quantified in plasma and brain homogenate by qualified LC-MS/MS method using suitable extraction technique. The test compounds were quantified in the calibration range of 1-500 ng/mL in plasma and brain homogenate. Study samples were analyzed using calibration samples in the batch and quality control samples spread across the batch. Extent of brain-plasma ratio was calculated (Cb/Cp).

acetylcholine [2] = assay: Modulation of acetylcholine from the frontal cortex (microdialysis); format: in vivo, male Wistar rats; conditions: p.o.
Description: (§1) Male Wistar rats (240-300 grams) were stereotaxically implanted with a microdialysis guide cannula in frontal cortex (AP: +3.2 mm, ML: −3.2 mm, DV: −1.5 mm). Co-ordinates were taken according to Paxinos and Watson (2004) with reference points taken from bregma and vertical from the skull. The rats were allowed to recover individually for four to five days in a round bottom Plexiglas bowl with free access to feed and water.
One day prior to the microdialysis experiment, rats were connected to a dual quartz lined two-channel liquid swivel (Instech, UK) on a counter balance lever arm, which allowed unrestricted movements of the animal. Sixteen hour before start of study, a pre-equilibrated microdialysis probe (3 mm dialysis membrane) was inserted into the frontal cortex through the guide cannula.
A stabilization period of 2 hours was maintained and five basal samples were collected at 20 minutes intervals. The test compound, Example 50 or vehicle was administered and dialysate samples were collected at 20 minutes interval for an additional period of 4 hours. Dialysates were stored below −70° C. until quantitation of acetylcholine.
(§2) Acetylcholine in dialysate was quantified in the calibration range of 0.103 nmol-103.491 nmol using LC-MS/MS method.
All microdialysis data were plotted as percent change from mean dialysate basal concentrations with 100% defined as the average of five pre-dose values. The AUC was calculated by trapezoidal rule using WinNonlin (5.0.1 version, Pharsight Corp. CA). The statistical significance between the mean AUC values of treatment groups with vehicle was calculated using one-way ANOVA followed by Dunnett's test. For each treatment group, the percent increase in acetylcholine levels was compared to the vehicle group using two-way analysis of variance (time and treatment), followed by Bonferroni's multiple comparison test. Statistical significance was considered at a p value less than 0.05.
In-correct probe placement was considered as criteria to reject the data from animal.

acetylcholine [3] = assay: Modulation of acetylcholine from the ventral hippocampus (microdialysis); format: in vivo, male Wistar rats; conditions: 1.0 mg/kg, p.o.
Description: as §1, with “ventral hippocampus” for “frontal cortex”, “−5.2” for “+3.2”, “+5.0” for “−3.2”, “−3.8” for “−1.5”
One day prior to the microdialysis experiment, rats were connected to a dual quartz lined two-channel liquid swivel (Instech, UK) on a counter balance lever arm, which allowed unrestricted movements of the animal. […]
A stabilization period of 2 h was maintained and five basal samples were collected at 20 minutes intervals. […] Dialysates were stored below −70° C. until quantitation of acetylcholine.
as §2
All microdialysis data were plotted as percent change from mean dialysate basal concentrations with 100% defined as the average of five pre-dose values. The AUC was calculated by trapezoidal rule using WinNonlin (5.0.1 version, Pharsight Corp. CA). The statistical significance between the mean AUC values of treatment groups with vehicle was calculated using one-way ANOVA followed by Dunnett's test. […]

[4] = Rodent pharmacokinetic study; format: in vivo, Male wistar rats; conditions: male, Wistar, plasma, rat
Method: Male wistar rats (225±25 grams) were used as experimental animals. Three to five animals were housed in each cage. Two days prior to dosing day, male wistar rats (225-250 grams) were anesthetized with isoflurane for surgical placement of jugular vein catheter. Animals were fasted overnight before oral dosing (p.o) and food pellets were allowed 2 hours post dosing, whereas during intravenous dosing food and water were provided as ad libitum. Three rats were dosed with test compounds (3 mg/kg) orally and intravenously (1 mg/kg).
At each time point blood was collected through jugular vein and immediately replenish with an equivalent volume of normal saline from freely moving rats. Collected blood was transferred into a labeled eppendr off containing 10 μL of heparin as anticoagulant. Typically blood samples were collected as following time points: Pre dose, 0.08 (only i.v.), 0.25, 0.5, 1, 2, 4, 6, 8, and 24 hours post dose-(n=3). Blood was centrifuged at 4000 rpm for 10 minutes. Plasma was prepared and stored frozen at −20° C. until analysis. The concentrations of the test compounds were quantified in plasma by qualified LC-MS/MS method using suitable extraction technique. The test compounds were quantified in the calibration range around 2-2000 ng/mL in plasma. Study samples were analyzed using calibration samples in the batch and quality control samples spread across the batch.
Pharmacokinetic parameters Cmax, Tmax, AUCt, T1/2 and Bioavailability were calculated by non-compartmental model using standard non-compartmental model by using WinNonLin 5.0.1 or Phoenix WinNonlin 6.2 version Software package.

hERG = molecular target: T1, hERG (Homo sapiens, UniProt Q12809); assay: Automated hERG patch clamp assay; format: cell-based; conditions: hERG-HEK293 cells, whole cell patch clamp
T1 construct: expressed in transfected cells; host or cells: HEK293 (hERG-HEK293)
T1 sequence (Q12809 whole entry): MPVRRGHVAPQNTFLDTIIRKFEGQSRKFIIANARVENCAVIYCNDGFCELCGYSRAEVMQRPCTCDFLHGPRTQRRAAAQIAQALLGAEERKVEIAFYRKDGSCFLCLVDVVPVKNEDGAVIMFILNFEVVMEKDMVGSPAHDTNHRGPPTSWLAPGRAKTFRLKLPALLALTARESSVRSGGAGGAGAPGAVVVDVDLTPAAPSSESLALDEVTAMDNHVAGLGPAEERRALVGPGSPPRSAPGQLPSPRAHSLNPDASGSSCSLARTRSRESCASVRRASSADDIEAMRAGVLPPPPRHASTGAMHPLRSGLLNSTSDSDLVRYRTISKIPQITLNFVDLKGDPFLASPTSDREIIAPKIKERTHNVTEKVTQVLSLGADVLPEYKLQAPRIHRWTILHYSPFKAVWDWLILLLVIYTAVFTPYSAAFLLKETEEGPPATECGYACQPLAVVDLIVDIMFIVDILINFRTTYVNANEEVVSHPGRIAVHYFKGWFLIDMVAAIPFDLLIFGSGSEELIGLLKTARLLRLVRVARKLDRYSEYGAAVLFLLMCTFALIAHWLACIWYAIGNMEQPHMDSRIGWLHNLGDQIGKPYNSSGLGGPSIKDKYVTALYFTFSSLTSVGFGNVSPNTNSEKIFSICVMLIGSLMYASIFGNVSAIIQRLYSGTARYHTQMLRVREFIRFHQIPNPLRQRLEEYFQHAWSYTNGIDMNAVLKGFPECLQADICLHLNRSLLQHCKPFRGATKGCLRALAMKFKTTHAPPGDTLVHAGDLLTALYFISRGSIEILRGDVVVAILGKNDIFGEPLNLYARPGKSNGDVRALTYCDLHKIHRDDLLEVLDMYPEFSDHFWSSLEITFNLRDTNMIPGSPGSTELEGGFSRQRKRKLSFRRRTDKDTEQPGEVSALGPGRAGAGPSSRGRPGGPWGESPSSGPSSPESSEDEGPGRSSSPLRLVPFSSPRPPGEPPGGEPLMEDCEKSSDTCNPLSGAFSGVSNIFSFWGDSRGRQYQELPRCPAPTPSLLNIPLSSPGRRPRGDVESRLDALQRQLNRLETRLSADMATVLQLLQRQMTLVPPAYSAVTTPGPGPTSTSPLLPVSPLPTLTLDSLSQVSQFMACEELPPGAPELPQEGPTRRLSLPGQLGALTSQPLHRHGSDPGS
Method: To study the cardiac safety of test compounds using automated hERG patch clamp assay, hERG-HEK293 cells were grown to 70% confluency and were harvested using accumax. The cells were then suspended in complete media and were incubated at 37° C. and 5% CO2 for 30 minutes before using these cells for the whole cell patch clamp assay. Whole cell patch clamp recordings were conducted on Nanion's Patchliner using I-V protocol of voltage step from holding potential of −80 mV to +40 mV for 500 ms and then to test potential for 500 ms and back to holding potential of −80 mV. Pulses were elicited every 10 seconds. Each test compound concentration was incubated for 5 minutes. Data analysis was done by plotting the raw data using Igor Pro software and IC50 values were calculated. Cells with resistance >1 Gohms and tail currents of >200 pA were taken into consideration for data analysis. Quinidine was used as positive control.

Kp [1]: 1.48 ± 0.26
AUC(0-t) ([4]; 1 mg/kg, intravenous (bolus)): 182 ± 37 ng·h/mL
half-life ([4]; 1 mg/kg, intravenous (bolus)): 1.2 h
bioavailability ([4]; 3 mg/kg oral vs 1 mg/kg intravenous): 63 ± 13%
AUC(0-t) ([4]; 3 mg/kg, oral (gavage)): 346 ± 71 ng·h/mL
Cmax ([4]; 3 mg/kg, oral (gavage)): 230 ± 56 ng/mL
Tmax ([4]; 3 mg/kg, oral (gavage)): 0.25 h
half-life ([4]; 3 mg/kg, oral (gavage)): 1.5 h
SMILES: CC(C)(O)CN1CCC(F)(CNC(=O)c2cc(Cl)c(N)c3ccoc23)CC1 [Example 50, 4-Amino-5-chloro-N-{[4-fluoro-1-(2-hydroxy-2-methylpropyl)-4-piperidinyl]methyl}benzofuran-7-carboxamide L(+)-tartarate]
Acetylcholine levels, frontal cortex, % of pre-dose levels (acetylcholine [2]; 10.0 mg/kg): 204%
Area under the curve (AUC), frontal cortex acetylcholine (acetylcholine [2]; 10.0 mg/kg): significant increase
acetylcholine levels of frontal cortex (acetylcholine [2]; across doses): dose-dependent increase
Area under the curve increase, hippocampal acetylcholine (acetylcholine [3]): 31%
increase in acetylcholine levels from ventral hippocampus (acetylcholine [3]): 51%
IC50 (hERG): > 10 µM
